From article PMC7906094 (Cancer chemotherapy and pharmacology, 2020)
Blank lines part the entries; values can stand above or below the molecule they belong to.

Tests used:
[1] = test system: CYP3A4; conditions: cited from earlier work
[2] = test system: CYP3A5; conditions: cited from earlier work
[3] = cited from earlier work
[4] = test system: primary human hepatocytes; assay: Triapine metabolism in human hepatocytes with enzyme inhibitors; assay type: in vitro ADME; conditions: in the presence of non-isoform specific CYP inhibitor N-benzyl imidazole
[5] = target: CYP2C19 (Homo sapiens, UniProt P33261); assay type: in vitro ADME; conditions: triapine 6 μM, human liver microsomes
CYP2C19, sequence (P33261 whole entry): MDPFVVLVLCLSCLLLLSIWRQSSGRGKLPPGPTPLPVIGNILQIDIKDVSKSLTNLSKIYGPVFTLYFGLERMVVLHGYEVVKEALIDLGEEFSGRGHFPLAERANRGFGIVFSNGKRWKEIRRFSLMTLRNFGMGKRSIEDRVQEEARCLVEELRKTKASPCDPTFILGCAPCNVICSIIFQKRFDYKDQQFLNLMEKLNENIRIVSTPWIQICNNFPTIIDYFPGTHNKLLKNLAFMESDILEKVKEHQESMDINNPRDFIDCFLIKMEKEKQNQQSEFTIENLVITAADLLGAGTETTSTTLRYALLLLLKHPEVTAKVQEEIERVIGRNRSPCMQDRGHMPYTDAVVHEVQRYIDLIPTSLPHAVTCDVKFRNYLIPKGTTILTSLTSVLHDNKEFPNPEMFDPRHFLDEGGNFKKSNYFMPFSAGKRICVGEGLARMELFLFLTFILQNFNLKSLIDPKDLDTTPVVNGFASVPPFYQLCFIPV

[6] = human, primary human hepatocytes
[7] = test system: monoamine oxidases (MAO)-A/B; assay: Triapine metabolism in human liver mitochondria; assay type: in vitro ADME; conditions: presence or absence of MAO-A and B inhibitors
[8] = test system: CYP; assay: Triapine metabolism in human liver microsomes, pH 7.4; assay type: in vitro ADME; conditions: human, human liver microsomes fortified with NADPH, pH 7.4
[9] = test system: human liver microsomes (CYP); assay: as above; assay type: in vitro ADME
[10] = test system: aldehyde oxidase (AO) and xanthine oxidase (XO); assay: Triapine metabolism in human liver cytosol with high AO/XO activity; assay type: in vitro ADME; conditions: 90-minute incubation, human liver cytosol enriched in AO/XO, presence or absence of raloxifene and allopurinol
[11] = test system: human liver microsomal glucuronyltransferases; assay: Triapine metabolism by glucuronosyltransferases in human liver microsomes; assay type: in vitro ADME; conditions: human liver microsomes + UDPGA, 120-minute incubation
[12] = test system: human liver microsomes (FMO); assay: Triapine metabolism in human liver microsomes, pH 8.4; assay type: in vitro ADME
[13] = test system: CYP2C9; conditions: microsomes; cited from earlier work
[14] = test system: CYP3A4; conditions: cited from earlier work; remark: listed apart in the source
[15] = test system: primary human hepatocytes; conditions: human hepatocytes, tenofovir 0.5 μM, emtricitabine 7.2 μM; for impact of co-incubation on triapine half-life: triapine 6 μM
[16] = test system: CYP3A4; conditions: cited from earlier work; remark: listed apart in the source

SMILES: CNC(=O)c1cc(Oc2ccc(NC(=O)Nc3ccc(Cl)c(C(F)(F)F)c3)cc2)ccn1 [Sorafenib]
effect on midazolam 1'-hydroxylation by CYP3A4 [1]: inhibited
effect on midazolam 1'-hydroxylation by CYP3A5 [2]: activated

triapine metabolism in hepatocytes [4]: inhibited
increase of metabolism of CYP2C19 probe S-mephenytoin [5]: 20%
half-life at 6 μM [6]: 8 h
triapine depletion [7]: no triapine depletion
half-life at 6 μM [8]: ~3 h
depletion of triapine ([9]; NADPH-fortified human liver microsomes pH 7.4 in the presence of CYP non-specific inhibitor N-benzyl imidazole (1 mM)): Minimal depletion
triapine remaining intact ([9]; control incubation without either NADPH or microsomes, after 2 h): > 95%
metabolism of triapine [10]: did not undergo metabolism
triapine remaining [11]: 100.3%
triapine disappeared ([12]; human liver microsomes, phosphate buffer pH 8.4, fortified with NADPH, within 2 h): 17%
depletion of triapine ([12]; pH 8.4, control incubation without NADPH): 9%
depletion of triapine ([12]; pH 8.4, in the presence of FMO inhibitor methimazole (200 μM)): 9%
SMILES: NC(=S)NN=Cc1ncccc1N [Triapine, 3-aminopyridine-2-carboxaldehyde thiosemicarbazone]
Cmax ([3]; after intravenous or oral dosing): ~5 µM
total body clearance ([3]; humans, intravenous administration): 57.5 ± 25 L/h
time to reach Cmax ([3]; humans, oral administration): 1.9 ± 1.4 h
urinary excretion ([3]; humans): minimal

SMILES: CC(C)=O [acetone]
stimulation of CYP2C9 mediated tolbutamide hydroxylation [13]: 2–3 fold

SMILES: CC#N [acetonitrile]
stimulation of CYP2C9 mediated tolbutamide hydroxylation [13]: 2–3 fold

SMILES: O=C(O)CC(O)(CC(=O)O)C(=O)O [citrate]
effect on CYP3A4 catalytic activity [14]: stimulated

impact of co-incubation on %triapine remaining after 48 hours [15]: not significantly different
impact of co-incubation on triapine AUC0–48h [15]: not significantly different
impact of co-incubation on triapine half-life [15]: not impacted
SMILES: Nc1nc(=O)n([C@@H]2CS[C@H](CO)O2)cc1F [emtricitabine]

SMILES: C=C[C@H]1C[N@@]2CC[C@H]1C[C@@H]2[C@@H](O)c1ccnc2ccc(OC)cc12 [quinidine]
increase of CYP3A4 Vmax for R-warfarin 10-hydroxylation [16]: 5 fold
increase of CYP3A4 Vmax for S-warfarin 4'-hydroxylation [16]: 2.5 fold
increase of CYP3A4 mediated 5-, 5'-, and 10-hydroxylation of diclofenac, piroxicam and R-warfarin [16]: 5–7 fold

SMILES: CCN(CC)CCNC(=O)c1c(C)[nH]c(/C=C2\C(=O)Nc3ccc(F)cc32)c1C [sunitinib]
effect on midazolam 1'-hydroxylation by CYP3A4 [1]: inhibited
effect on midazolam 1'-hydroxylation by CYP3A5 [2]: activated

impact of co-incubation on %triapine remaining after 48 hours [15]: not significantly different
impact of co-incubation on triapine AUC0–48h [15]: not significantly different
impact of co-incubation on triapine half-life [15]: not impacted
SMILES: C[C@H](Cn1cnc2c(N)ncnc21)OCP(=O)(O)O [tenofovir]
